Measured values from US9446127B2, “Compositions including androgen receptor degradation (ARD) enhancers and methods of prophylactic or therapeutic treatment of skin disorders and hair loss” (AndroScience Corporation, priority 2007, dated 2016).

Assays:
[1] = biological target: T1, mutant androgen receptor poly Q49 (GFPARQ49) (Homo sapiens, UniProt P10275, INS80QQQQQQQQQQQQQQQQQQQQQQQQQQ); assay: Fluorescence microscopy of COS-1 cells transfected with GFPARQ49; type: cell-based; conditions: COS-1, 5 micromolar
T1 construct: GFP (green fluorescent protein); expressed in transfected cells; host or cells: COS-1 (monkey kidney)
Procedure: (§1) Monkey kidney COS-1 cells were plated at a density of 3×10^4 cells per 0.5-milliliter volume onto alcohol-cleaned and sterilized cover slips placed in 35-millimeter suspension culture dishes containing Dulbecco's modified Eagle's (DME) medium containing 10% FBS. The cells were transfected with plasmids containing the wild type AR (GFPAR) or poly Q49 (plasmid GFPARQ49) mutant androgen receptor and green fluorescent protein (GFP) as a reporter. For each coverslip, 12.3 microliters SuperFect was added to 3.075 micrograms plasmid in 102.5 microliters DME medium (to give a 1:4 ratio of DNA to SuperFect reagent); the mixture was vortexed briefly, and the complex allowed to form over 15 minutes. Each mixture then received 897 microliters CD/DME and was mixed gently. The resulting 1-milliliter volumes were added to the dishes containing the coverslips (final plasmid concentration was […] per dish). Cells were allowed to incubate with the transfection solution for 5 hours, then the medium was changed to fresh 1.5 milliliters CD/DME medium with either vehicle (DMSO) only added or ASC-J9 (final concentration 5 micromolar). […] The coverslips were air-dried, mounted on slides with a glycerol-based mounting agent, and stored at 4 degrees Celsius if necessary prior to observation with fluorescence microscopy. […]

[2] = biological target: T2, wild type androgen receptor (GFPAR) (Homo sapiens, UniProt P10275); assay: Fluorescence microscopy of COS-1 cells transfected with GFPAR; type: cell-based; conditions: COS-1, 5 micromolar
T2 construct: GFP (green fluorescent protein); expressed in transfected cells; host or cells: COS-1 (monkey kidney)
T2 sequence (P10275 1-920): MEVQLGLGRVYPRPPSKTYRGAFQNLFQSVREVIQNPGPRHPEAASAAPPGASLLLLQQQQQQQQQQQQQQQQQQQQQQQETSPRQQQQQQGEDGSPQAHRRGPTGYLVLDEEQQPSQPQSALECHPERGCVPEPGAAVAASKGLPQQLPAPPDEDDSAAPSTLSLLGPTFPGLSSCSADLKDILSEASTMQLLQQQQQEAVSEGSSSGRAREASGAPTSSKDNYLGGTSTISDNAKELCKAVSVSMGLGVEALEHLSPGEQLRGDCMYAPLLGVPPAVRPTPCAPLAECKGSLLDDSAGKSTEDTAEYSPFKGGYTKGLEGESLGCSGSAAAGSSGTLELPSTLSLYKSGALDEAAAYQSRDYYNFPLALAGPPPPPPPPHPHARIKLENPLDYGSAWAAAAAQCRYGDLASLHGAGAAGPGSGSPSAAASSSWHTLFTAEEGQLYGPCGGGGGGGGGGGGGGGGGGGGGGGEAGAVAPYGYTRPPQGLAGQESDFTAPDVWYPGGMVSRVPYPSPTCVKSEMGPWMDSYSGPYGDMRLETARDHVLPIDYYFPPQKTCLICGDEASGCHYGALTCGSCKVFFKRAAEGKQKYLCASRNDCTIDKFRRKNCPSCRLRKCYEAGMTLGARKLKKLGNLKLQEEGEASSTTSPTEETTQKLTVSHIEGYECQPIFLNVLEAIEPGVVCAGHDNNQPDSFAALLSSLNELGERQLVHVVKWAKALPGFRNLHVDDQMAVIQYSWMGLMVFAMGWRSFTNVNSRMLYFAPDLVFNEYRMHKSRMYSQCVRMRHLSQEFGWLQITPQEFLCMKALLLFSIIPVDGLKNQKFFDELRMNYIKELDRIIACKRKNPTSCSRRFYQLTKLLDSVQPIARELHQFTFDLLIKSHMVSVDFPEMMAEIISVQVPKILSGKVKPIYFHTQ
Procedure: as §1

T1 sequence (P10275 with tags, fused parts or gaps with the stated changes): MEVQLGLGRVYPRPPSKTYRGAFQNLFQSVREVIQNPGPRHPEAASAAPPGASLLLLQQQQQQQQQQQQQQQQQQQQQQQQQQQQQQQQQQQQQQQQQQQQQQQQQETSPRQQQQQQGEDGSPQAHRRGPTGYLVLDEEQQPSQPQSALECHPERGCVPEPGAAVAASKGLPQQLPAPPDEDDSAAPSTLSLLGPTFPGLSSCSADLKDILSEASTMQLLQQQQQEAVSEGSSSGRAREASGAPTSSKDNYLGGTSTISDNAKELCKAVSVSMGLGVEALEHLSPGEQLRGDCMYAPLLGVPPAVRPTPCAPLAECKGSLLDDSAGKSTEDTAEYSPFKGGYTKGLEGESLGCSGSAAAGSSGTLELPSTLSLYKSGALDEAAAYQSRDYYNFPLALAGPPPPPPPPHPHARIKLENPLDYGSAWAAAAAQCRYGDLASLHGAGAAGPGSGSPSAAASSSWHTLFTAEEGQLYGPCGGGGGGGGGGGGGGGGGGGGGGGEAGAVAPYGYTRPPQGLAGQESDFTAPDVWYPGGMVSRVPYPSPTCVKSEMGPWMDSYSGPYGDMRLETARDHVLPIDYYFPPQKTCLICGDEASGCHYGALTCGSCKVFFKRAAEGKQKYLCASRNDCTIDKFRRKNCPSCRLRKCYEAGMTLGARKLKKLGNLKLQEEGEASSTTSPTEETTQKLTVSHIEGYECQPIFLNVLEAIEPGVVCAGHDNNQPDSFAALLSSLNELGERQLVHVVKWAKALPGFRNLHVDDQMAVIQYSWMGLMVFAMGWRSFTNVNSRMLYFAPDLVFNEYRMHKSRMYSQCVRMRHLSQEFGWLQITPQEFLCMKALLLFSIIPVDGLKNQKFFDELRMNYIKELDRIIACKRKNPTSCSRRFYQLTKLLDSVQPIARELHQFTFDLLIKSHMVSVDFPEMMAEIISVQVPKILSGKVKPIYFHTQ

SMILES: COc1ccc(C=CC(=O)C=C(O)C=Cc2ccc(OC)c(OC)c2)cc1OC [ASC-J9, 5-hydroxy-1,7-bis(3,4-dimethoxyphenyl)-1,4,6-heptatrien-3-one]
- fluorescent inclusions or aggregates of mutant poly Q49 AR [1]: substantially smaller amounts of fluorescent inclusions
- GFPAR fluorescence (expression of wild type AR) [2]: reduces (or degrades) the expression of AR
